Results on 13 molecules are retold here after PubChem BioAssay (NCI).

Test systems include M14 melanoma; OVCAR-8 ovarian; COLO 205 colon; HCT-15 colon; ACHN renal; HT29 colon; RPMI-8226 leukemia; DU-145 prostate; OVCAR-4 ovarian; RXF 393 renal.
What all share (experiment): growth of human tumour cells (NCI), 48 h

Where “and” joins values, the source holds several entries; their conditions need not be identical. Equal entries are not always repeated.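 Cells were grown in 96-well plates and exposed to each compound for 48 hours at five concentrations; endpoints were interpolated linearly between bracketing concentrations, or set to the highest concentration if not reached. GI50 = concentration required for 50% inhibition of growth. TGI: total growth inhibition.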

As for `CCOC(=O)c1cn(CC)c2ccc3ccsc3c2c1=O`, the TGI in the assay on M14 melanoma, in the assay on OVCAR-8 ovarian, in the assay on COLO 205 colon, in the assay on HCT-15 colon, in the assay on ACHN renal and in the assay with HT29 colon was greater than 100 µM each time. In addition, the TGI in the assay on RPMI-8226 leukemia, in the assay with DU-145 prostate, with OVCAR-4 ovarian and in the assay with RXF 393 renal was greater than 100 µM in each case.
Regarding `Nc1nc(Br)nc2ncn(C3CC(O)C(CO)O3)c12` (stereo unspecified), the TGI in the assay on M14 melanoma was 33.4 µM; in the assay on OVCAR-8 ovarian, greater than 100 µM; in the assay with COLO 205 colon, greater than 100 µM; with HCT-15 colon, greater than 100 µM; in the assay with ACHN renal, greater than 100 µM; in the assay on HT29 colon it was greater than 100 µM. In addition, the TGI in the assay with RPMI-8226 leukemia, with DU-145 prostate, in the assay with OVCAR-4 ovarian and in the assay with RXF 393 renal was greater than 100 µM in each case.
`O=C(O)c1cccc(OCCOc2cccc(C(=O)O)c2[N+](=O)[O-])c1[N+](=O)[O-]`: the TGI in the assay with M14 melanoma, in the assay on OVCAR-8 ovarian, with COLO 205 colon, in the assay with HCT-15 colon, with ACHN renal and with HT29 colon was greater than 100 µM in each case. For the same molecule, the TGI in the assay on RPMI-8226 leukemia, with DU-145 prostate, in the assay with OVCAR-4 ovarian and in the assay on RXF 393 renal was greater than 100 µM in each case.
With `COc1cc2c(cc1O)Cc1c-2[n+](C)cc2cc(OC)c(OC)cc12`, the TGI in the assay with M14 melanoma, in the assay on OVCAR-8 ovarian, in the assay on COLO 205 colon, with HCT-15 colon, with ACHN renal and in the assay with HT29 colon was greater than 100 µM each time. For the same molecule, the TGI in the assay with RPMI-8226 leukemia, in the assay with DU-145 prostate, in the assay on OVCAR-4 ovarian and in the assay with RXF 393 renal was greater than 100 µM in each case.
Consider `Cc1ccc(S(=O)(=O)ON2C(=O)c3c(N)c(C#N)c(-c4ccccc4)c(-c4ccccc4)c3C2=O)cc1`, for which the TGI with M14 melanoma was found to be 29.5 µM; in the assay on OVCAR-8 ovarian it was 46 µM; with COLO 205 colon, 33.1 µM; in the assay with HCT-15 colon, 37.6 µM; in the assay with ACHN renal, 31.1 µM; in the assay with HT29 colon, 42.2 µM. Besides, the TGI worked out at 89.6 µM with RPMI-8226 leukemia, 67.1 µM with DU-145 prostate, 52.4 µM in the assay with OVCAR-4 ovarian and 26.5 µM in the assay with RXF 393 renal.
Consider `COc1ccccc1NC(=O)C(=O)Cc1cnc2ccccc2n1`, for which the TGI with M14 melanoma, in the assay on OVCAR-8 ovarian, with COLO 205 colon, with HCT-15 colon, with ACHN renal and with HT29 colon was greater than 100 µM in each case. Further, the TGI in the assay with RPMI-8226 leukemia, with DU-145 prostate, in the assay with OVCAR-4 ovarian and in the assay on RXF 393 renal was greater than 100 µM throughout.
`CN1CC=C(c2cccn2C)CC1`: the TGI in the assay on M14 melanoma, with OVCAR-8 ovarian, in the assay on COLO 205 colon, in the assay with HCT-15 colon, in the assay with ACHN renal and with HT29 colon was greater than 100 µM each time. The TGI in the assay on RPMI-8226 leukemia, in the assay on DU-145 prostate, in the assay with OVCAR-4 ovarian and with RXF 393 renal was greater than 100 µM each time.
Turning to `O=C1CCCCC1C(O)(C(F)(F)F)C(F)(F)Cl` (stereo unspecified), the TGI in the assay on M14 melanoma, with OVCAR-8 ovarian, in the assay with COLO 205 colon, in the assay on HCT-15 colon, in the assay on ACHN renal and with HT29 colon was greater than 10 µM each time. Besides, the TGI in the assay with RPMI-8226 leukemia, in the assay on DU-145 prostate, in the assay on OVCAR-4 ovarian and in the assay on RXF 393 renal was greater than 10 µM throughout.
Turning to `O=C(O)C1=CN(c2ccncc2)C(c2ccco2)=CC1c1ccccc1[N+](=O)[O-]` (stereo unspecified), the TGI in the assay on M14 melanoma stood at 23.4 µM; in the assay with OVCAR-8 ovarian, 54.8 µM; in the assay on COLO 205 colon, 32.9 µM; with HCT-15 colon, 4.75 µM; in the assay with ACHN renal, 3.59 µM; in the assay on HT29 colon it was 6.18 µM. The TGI is greater than 24.5 µM in the assay with RPMI-8226 leukemia, 26.7 µM in the assay with DU-145 prostate, 28.2 µM with OVCAR-4 ovarian and 15.5 µM with RXF 393 renal.
Turning to `CC1(C)SCc2nc3ccccc3n21`, the TGI in the assay with M14 melanoma, with OVCAR-8 ovarian, in the assay with COLO 205 colon, in the assay on HCT-15 colon, in the assay with ACHN renal and in the assay with HT29 colon was greater than 100 µM in each case. The TGI in the assay with RPMI-8226 leukemia, in the assay on DU-145 prostate, in the assay on OVCAR-4 ovarian and with RXF 393 renal was greater than 100 µM in each case.
As for `c1ccc(-c2cc(-c3ccncc3)cc(-c3ccncc3)n2)cc1`, the TGI in the assay on M14 melanoma, with OVCAR-8 ovarian, in the assay with COLO 205 colon, in the assay on HCT-15 colon, in the assay on ACHN renal and with HT29 colon was greater than 100 µM in each case. Further, the TGI with RPMI-8226 leukemia, with DU-145 prostate, in the assay on OVCAR-4 ovarian and in the assay with RXF 393 renal was greater than 100 µM throughout.
Regarding `Nc1nc(N)c2ncn(-c3ccccc3)c2n1`, the TGI with M14 melanoma, in the assay with OVCAR-8 ovarian, with COLO 205 colon, with HCT-15 colon, in the assay on ACHN renal and with HT29 colon was greater than 100 µM each time. Further, the TGI in the assay with RPMI-8226 leukemia, in the assay with DU-145 prostate, in the assay with OVCAR-4 ovarian and with RXF 393 renal was greater than 100 µM throughout. In addition, the GI50 in the assay with OVCAR-4 ovarian was 21.8 µM and > 100 µM.
Turning to `COC(=O)[C@@H](OC(C)=O)[C@@H](OC(C)=O)c1nnc2ccc(Cl)nn12`, the TGI with M14 melanoma, in the assay with OVCAR-8 ovarian, in the assay on COLO 205 colon, in the assay with HCT-15 colon, in the assay on ACHN renal and with HT29 colon was greater than 100 µM throughout. Moreover, the TGI with RPMI-8226 leukemia, in the assay with DU-145 prostate, in the assay with OVCAR-4 ovarian and in the assay with RXF 393 renal was greater than 100 µM throughout.
